US20080194619A1, “Anti-Hiv Quinuclidine Compounds” (priority 2004, published 2008)
Like-named read-outs stand apart in the source and are kept apart here.

Legend:
[1] = system: HIV MDR 769 strain; test: AV-Finder-HIV assay, multi-drug resistant HIV MDR 769 strain replication in HeLa cells; format: cell-based
From the text: (§1) In order to study the viral replication in vitro, the GenPhar AV-Finder™-HIV Drug Discovery Assay was used, a novel technology that consists of two components: (1) a cloned, continuous-passage HeLa cell line containing an HIV-1 tat-activated molecular switch and a Green Fluorescent Protein reporter gene and (2) a recombinant adenovirus (rAd) vector containing the genes for all three of the HIV-1 receptor/co-receptors (CD4, CXCR4, and CCR5) to transduce into HeLa cells and convert them into highly susceptible HIV-1 indicator cells for use in the assay. The indicator cells over-express the HIV-1 receptor genes and are readily infected with any HIV-1 strain or isolate. All HIV-1 strains tested thus far, regardless of co-receptor preference, and all subtypes or classes of HIV-1 will infect these indicator cells. Infected cells fluoresce brightly so that the inhibition of virus replication by potential antiviral drugs can be readily detected and quantified using standard laboratory plate reader technology.
(§2) Detector plates are set up at day 1 by adding HeLa cells (3000/well) to the adenovirus AD-3R in DMEM containing CCS in 96-well plates and incubated at 37° C. under 95% humidity and 5% CO2 for 2 days. […] At day 4, the medium was replaced by fresh medium containing the corresponding concentration of the compounds of interest. The infectivity was assessed by measuring the fluorescence on each well at day 7 ([…]). […] At day 5, the medium was replaced by fresh medium containing the corresponding concentration of compounds of interest and the infectivity was assessed by measuring the fluorescence on each well at day 8. Results are expressed as percentage of inhibition of the viral replication.

[2] = system: HeLa cells; test: MTT cytotoxicity assay (mitochondrial integrity)
Method: Following the above described cell treatment protocol, the levels of cellular 3-(4,5-dimehtylthiazol-2-yl)-2,5-diphenyl tetrazolium bromide (MTT) reduction, a measure of mitochondrial integrity, were determined in order to examine whether the compounds tested were cytotoxic.

[3] = system: HIV-1 IIIB; test: GenPhar AV-Finder-HIV Drug Discovery Assay, HIV-1 IIIB replication in HeLa indicator cells; format: cell-based; conditions: for IC50: read-out: IC50 of HIV replication inhibition
From the text: as §1, with “All HIV-1 strains tested thus far, regardless of co-receptor preference, and all subtypes or classes of HIV-1 will infect these indicator cells.” left out
as §2
(4-amino-phenyl)-(1-aza-bicyclo[2.2.2]oct-4-yl)-methanone (FIG. 1) was used either alone dissolved in water (SP003) or in an aqueous formulation (SP003A) containing zinc sulfate heptahydrate and ascorbic acid at the ratio of 26.6/1/1.6 (for example 200 mg SP003 with 7.5 mg of zinc sulfate heptahydrate and 12.5 mg of ascorbic acid; Xu, J. et al., J. Pharmacol. Exper. Ther., (2003) 307:1148-1157.

Nc1ccc(C(=O)C23CCN(CC2)CC3)cc1 [SP003, (4-Amino-phenyl)-(1-aza-bicyclo[2.2.2]oct-4-yl)-methanone]
IC50 ([1]; Human immunodeficiency virus 1, HeLa, read-out: IC50 of HIV MDR 769 viral replication inhibition): 0.01 nM | inhibition of HIV MDR 769 viral replication ([1]; without pre-medication, FIG. 5): 60% | cell toxicity (MTT cytotoxicity assay) ([2]; all concentrations tested, up to 100 μM): devoid of cell toxicity | inhibition of HIV replication ([3]; 48 hours pretreatment, FIG. 4): 50% | IC50 ([3]; Human immunodeficiency virus 1, IIIB, HeLa, 48 hours pretreatment, FIG. 4): 0.03 nM | inhibition of HIV-1 IIIB viral replication (in words) ([3]; no pre-medication, HeLa cells, FIG. 2): higher efficiency than the classical antiviral agent ddI | inhibition of HIV-1 IIIB replication ([3]; no pre-medication, concentrations in the nanomolar range): up to 50%

O=c1[nH]cnc2c1ncn2[C@H]1CC[C@@H](CO)O1 [ddI]
IC50 [2]: 89000 nM

Cc1cn([C@H]2C[C@H](N=[N+]=[N-])[C@@H](CO)O2)c(=O)[nH]c1=O [AZT, reference compound]
inhibition of HIV MDR 769 strain replication (in words) ([1]; without pre-medication, FIG. 5): not effective | IC50 ([2]; read-out: toxicity IC50 (MTT cytotoxicity assay)): 161000 nM | curve plateau, inhibition of viral replication ([3]; 24 hours pre-medication): around 40% | IC50 ([3]; 48 hours pretreatment, FIG. 4): 30 nM
